{
  "source": "PubChem BioAssay AID1963449",
  "about": "(Molecular Pharmacology Branch, DTP, NCI, 2024)",
  "tested_on": "596521-263-R-J1-PDC complex spheroid growth",
  "assay": "Anticancer human tumor 596521-263-R-J1-PDC patient-derived soft tissue sarcoma cell line growth inhibition [Asc]",
  "details": "for IC50: curve of first compound; for viability, T/C: stronger effect = lower value",
  "outline": "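Spheroid model: tumor line + HUVEC + hMSC. Single agents and combinations; top conc. at/near clinical Cmax (10 microM if undetermined), half-log dilutions. DMSO stocks at 800-fold test concentration.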",
  "key": {"[1]": {"details": "second compound 0.00949 µM, first compound 0.0316 µM"}, "[2]": {"details": "second compound 0.00949 µM, first compound 0.1 µM"}, "[3]": {"details": "second compound 0.00949 µM, first compound 0.316 µM"}, "[4]": {"details": "second compound 0.00949 µM, first compound 1 µM"}, "[5]": {"details": "second compound 0.03 µM, first compound 0.0316 µM"}, "[6]": {"details": "second compound 0.03 µM, first compound 0.1 µM"}, "[7]": {"details": "second compound 0.03 µM, first compound 0.316 µM"}, "[8]": {"details": "second compound 0.03 µM, first compound 1 µM"}, "[9]": {"details": "second compound 0.0949 µM, first compound 0.0316 µM"}, "[10]": {"details": "second compound 0.0949 µM, first compound 0.1 µM"}, "[11]": {"details": "second compound 0.0949 µM, first compound 0.316 µM"}, "[12]": {"details": "second compound 0.0949 µM, first compound 1 µM"}, "[13]": {"details": "second compound 0.3 µM, first compound 0.0316 µM"}, "[14]": {"details": "second compound 0.3 µM, first compound 0.1 µM"}, "[15]": {"details": "second compound 0.3 µM, first compound 0.316 µM"}, "[16]": {"details": "second compound 0.3 µM, first compound 1 µM"}, "[17]": {"details": "second compound 0.949 µM, first compound 0.0316 µM"}, "[18]": {"details": "second compound 0.949 µM, first compound 0.1 µM"}, "[19]": {"details": "second compound 0.949 µM, first compound 0.316 µM"}, "[20]": {"details": "second compound 0.949 µM, first compound 1 µM"}, "[21]": {"details": "second compound 3 µM, first compound 0.0316 µM"}, "[22]": {"details": "second compound 3 µM, first compound 0.1 µM"}, "[23]": {"details": "second compound 3 µM, first compound 0.316 µM"}, "[24]": {"details": "second compound 3 µM, first compound 1 µM"}},
  "data": [
    {"molecule": "CCN1CCN(Cc2ccc(Nc3ncc(F)c(-c4cc(F)c5nc(C)n(C(C)C)c5c4)n3)nc2)CC1", "note": "+ CCN1C(C(=O)NC23CCC(C(=O)O)(CC2)CC3)C(c2cccc(Cl)c2F)C2(C(=O)Nc3cc(Cl)ccc32)C12CCCCC2;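 note: spheroids exposed to compounds for 7 days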", "values": [
      {"measurement": "IC50", "setting": "second compound 0.00949 µM", "value": "> 1", "unit": "µM"},
      {"measurement": "IC50", "setting": "second compound 0.03 µM", "value": "> 1", "unit": "µM"},
      {"measurement": "IC50", "setting": "second compound 0.0949 µM", "value": "> 1", "unit": "µM"},
      {"measurement": "IC50", "setting": "second compound 0.3 µM", "value": "> 1", "unit": "µM"},
      {"measurement": "IC50", "setting": "second compound 0.949 µM", "value": "> 1", "unit": "µM"},
      {"measurement": "IC50", "setting": "second compound 3 µM", "value": "> 1", "unit": "µM"},
      {"measurement": "viability, T/C", "setting": "second compound 0.00949 µM, first compound 0.00316 µM", "value": 100, "unit": "%"},
      {"measurement": "viability, T/C", "setting": "second compound 0.00949 µM, first compound 0.01 µM", "value": 96.6, "unit": "%"},
      {"measurement": "viability, T/C", "setting": "[1]", "value": 82.5, "unit": "%"},
      {"measurement": "viability, T/C", "setting": "[2]", "value": 103, "unit": "%"},
      {"measurement": "viability, T/C", "setting": "[3]", "value": 97.5, "unit": "%"},
      {"measurement": "viability, T/C", "setting": "[4]", "value": 83.2, "unit": "%"},
      {"measurement": "viability, T/C", "setting": "second compound 0.03 µM, first compound 0.00316 µM", "value": 92.6, "unit": "%"},
      {"measurement": "viability, T/C", "setting": "second compound 0.03 µM, first compound 0.01 µM", "value": 96.9, "unit": "%"},
      {"measurement": "viability, T/C", "setting": "[5]", "value": 96.8, "unit": "%"},
      {"measurement": "viability, T/C", "setting": "[6]", "value": 89.4, "unit": "%"},
      {"measurement": "viability, T/C", "setting": "[7]", "value": 110, "unit": "%"},
      {"measurement": "viability, T/C", "setting": "[8]", "value": 88, "unit": "%"},
      {"measurement": "viability, T/C", "setting": "second compound 0.0949 µM, first compound 0.00316 µM", "value": 99.5, "unit": "%"},
      {"measurement": "viability, T/C", "setting": "second compound 0.0949 µM, first compound 0.01 µM", "value": 112, "unit": "%"},
      {"measurement": "viability, T/C", "setting": "[9]", "value": 96.1, "unit": "%"},
      {"measurement": "viability, T/C", "setting": "[10]", "value": 85.5, "unit": "%"},
      {"measurement": "viability, T/C", "setting": "[11]", "value": 93.6, "unit": "%"},
      {"measurement": "viability, T/C", "setting": "[12]", "value": 86.7, "unit": "%"},
      {"measurement": "viability, T/C", "setting": "second compound 0.3 µM, first compound 0.00316 µM", "value": 97.1, "unit": "%"},
      {"measurement": "viability, T/C", "setting": "second compound 0.3 µM, first compound 0.01 µM", "value": 93.5, "unit": "%"},
      {"measurement": "viability, T/C", "setting": "[13]", "value": 90, "unit": "%"},
      {"measurement": "viability, T/C", "setting": "[14]", "value": 102, "unit": "%"},
      {"measurement": "viability, T/C", "setting": "[15]", "value": 93.1, "unit": "%"},
      {"measurement": "viability, T/C", "setting": "[16]", "value": 77.3, "unit": "%"},
      {"measurement": "viability, T/C", "setting": "second compound 0.949 µM, first compound 0.00316 µM", "value": 103, "unit": "%"},
      {"measurement": "viability, T/C", "setting": "second compound 0.949 µM, first compound 0.01 µM", "value": 93.2, "unit": "%"},
      {"measurement": "viability, T/C", "setting": "[17]", "value": 103, "unit": "%"},
      {"measurement": "viability, T/C", "setting": "[18]", "value": 91.2, "unit": "%"},
      {"measurement": "viability, T/C", "setting": "[19]", "value": 82.8, "unit": "%"},
      {"measurement": "viability, T/C", "setting": "[20]", "value": 83.4, "unit": "%"},
      {"measurement": "viability, T/C", "setting": "second compound 3 µM, first compound 0.00316 µM", "value": 91.6, "unit": "%"},
      {"measurement": "viability, T/C", "setting": "second compound 3 µM, first compound 0.01 µM", "value": 102, "unit": "%"},
      {"measurement": "viability, T/C", "setting": "[21]", "value": 89.9, "unit": "%"},
      {"measurement": "viability, T/C", "setting": "[22]", "value": 97.7, "unit": "%"},
      {"measurement": "viability, T/C", "setting": "[23]", "value": 98.5, "unit": "%"},
      {"measurement": "viability, T/C", "setting": "[24]", "value": 89.9, "unit": "%"}
    ]},
    {"molecule": "O=C(c1cc(Cc2n[nH]c(=O)c3ccccc23)ccc1F)N1CCN(C(=O)C2CC2)CC1", "note": "+ CCN1C(C(=O)NC23CCC(C(=O)O)(CC2)CC3)C(c2cccc(Cl)c2F)C2(C(=O)Nc3cc(Cl)ccc32)C12CCCCC2", "values": [
      {"measurement": "IC50", "setting": "second compound 0.00949 µM", "value": "> 10", "unit": "µM"},
      {"measurement": "IC50", "setting": "second compound 0.03 µM", "value": "> 10", "unit": "µM"},
      {"measurement": "IC50", "setting": "second compound 0.0949 µM", "value": "> 10", "unit": "µM"},
      {"measurement": "IC50", "setting": "second compound 0.3 µM", "value": "> 10", "unit": "µM"},
      {"measurement": "IC50", "setting": "second compound 0.949 µM", "value": "> 10", "unit": "µM"},
      {"measurement": "IC50", "setting": "second compound 3 µM", "value": "> 10", "unit": "µM"},
      {"measurement": "viability, T/C", "setting": "[1]", "value": 101, "unit": "%"},
      {"measurement": "viability, T/C", "setting": "[2]", "value": 87.5, "unit": "%"},
      {"measurement": "viability, T/C", "setting": "[3]", "value": 95.5, "unit": "%"},
      {"measurement": "viability, T/C", "setting": "[4]", "value": 95, "unit": "%"},
      {"measurement": "viability, T/C", "setting": "second compound 0.00949 µM, first compound 3.16 µM", "value": 88, "unit": "%"},
      {"measurement": "viability, T/C", "setting": "second compound 0.00949 µM, first compound 10 µM", "value": 67.5, "unit": "%"},
      {"measurement": "viability, T/C", "setting": "[5]", "value": 101, "unit": "%"},
      {"measurement": "viability, T/C", "setting": "[6]", "value": 102, "unit": "%"},
      {"measurement": "viability, T/C", "setting": "[7]", "value": 97.6, "unit": "%"},
      {"measurement": "viability, T/C", "setting": "[8]", "value": 93.3, "unit": "%"},
      {"measurement": "viability, T/C", "setting": "second compound 0.03 µM, first compound 3.16 µM", "value": 88.4, "unit": "%"},
      {"measurement": "viability, T/C", "setting": "second compound 0.03 µM, first compound 10 µM", "value": 64.3, "unit": "%"},
      {"measurement": "viability, T/C", "setting": "[9]", "value": 101, "unit": "%"},
      {"measurement": "viability, T/C", "setting": "[10]", "value": 93, "unit": "%"},
      {"measurement": "viability, T/C", "setting": "[11]", "value": 108, "unit": "%"},
      {"measurement": "viability, T/C", "setting": "[12]", "value": 104, "unit": "%"},
      {"measurement": "viability, T/C", "setting": "second compound 0.0949 µM, first compound 3.16 µM", "value": 90.6, "unit": "%"},
      {"measurement": "viability, T/C", "setting": "second compound 0.0949 µM, first compound 10 µM", "value": 58.6, "unit": "%"},
      {"measurement": "viability, T/C", "setting": "[13]", "value": 95.8, "unit": "%"},
      {"measurement": "viability, T/C", "setting": "[14]", "value": 104, "unit": "%"},
      {"measurement": "viability, T/C", "setting": "[15]", "value": 107, "unit": "%"},
      {"measurement": "viability, T/C", "setting": "[16]", "value": 96.8, "unit": "%"},
      {"measurement": "viability, T/C", "setting": "second compound 0.3 µM, first compound 3.16 µM", "value": 96.9, "unit": "%"},
      {"measurement": "viability, T/C", "setting": "second compound 0.3 µM, first compound 10 µM", "value": 68.4, "unit": "%"},
      {"measurement": "viability, T/C", "setting": "[17]", "value": 104, "unit": "%"},
      {"measurement": "viability, T/C", "setting": "[18]", "value": 89.5, "unit": "%"},
      {"measurement": "viability, T/C", "setting": "[19]", "value": 96.3, "unit": "%"},
      {"measurement": "viability, T/C", "setting": "[20]", "value": 91.2, "unit": "%"},
      {"measurement": "viability, T/C", "setting": "second compound 0.949 µM, first compound 3.16 µM", "value": 75.5, "unit": "%"},
      {"measurement": "viability, T/C", "setting": "second compound 0.949 µM, first compound 10 µM", "value": 66.3, "unit": "%"},
      {"measurement": "viability, T/C", "setting": "[21]", "value": 75.2, "unit": "%"},
      {"measurement": "viability, T/C", "setting": "[22]", "value": 67.3, "unit": "%"},
      {"measurement": "viability, T/C", "setting": "[23]", "value": 74.2, "unit": "%"},
      {"measurement": "viability, T/C", "setting": "[24]", "value": 73.1, "unit": "%"},
      {"measurement": "viability, T/C", "setting": "second compound 3 µM, first compound 3.16 µM", "value": 72.5, "unit": "%"},
      {"measurement": "viability, T/C", "setting": "second compound 3 µM, first compound 10 µM", "value": 64.8, "unit": "%"}
    ]}
  ]
}
